Structures can show the parent of a compound that is named as a salt.
Target: T1, Nav1.7 (or SCN9A) channel (Homo sapiens, UniProt Q15858)
T1 construct: expressed in transfected cells
Test: Nav1.7 (hSCN9A) PatchXpress electrophysiology assay
Format: cell-based
Conditions: estimated IC50 from single point electrophysiology data; PatchXpress platform; HEK cells expressing hSCN9A, held at V1/2 of inactivation; read-out: Nav1.7 EIC50
Procedure: The ability of the compounds of formula (I) to block the Nav1.7 (or SCN9A) channel were measured using the assay described below.
Human Embryonic Kidney (HEK) cells were transfected with an hSCN9A construct using lipofectamine reagent (Invitrogen), using standard techniques. Cells stably expressing the hSCN9A constructs were identified by their resistance to G-418 (400 μg/ml). Clones were screened for expression using the whole-cell voltage-clamp technique.
HEK cells stably transfected with hSCN9A were maintained in DMEM medium supplemented with 10% heat-inactivated fetal bovine serum and 400 μg/ml G-418 in an incubator at 37° C. with a humidified atmosphere of 10% CO2. For HTS, cells were harvested from flasks by trypsinization and replated in an appropriate multi-well plate (typically 96 or 384 wells/plate) such that confluence would be achieved within 24 hours of plating. For electrophysiological studies, cells were removed from the culture flask by brief trypsinization and re-plated at low density onto glass cover slips. Cells were typically used for electrophysiological experiments within 24 to 72 hours after plating.
Cover slips containing HEK cells expressing hSCN9A were placed in a bath on the stage of an inverted microscope and perfused (approximately 1 ml/minutes) with extracellular solution of the following composition: 138 mM NaCl, 2 mM CaCl2, 5.4 mM KCl, 1mM MgCl2, 10 mM glucose, and 10 mM HEPES, pH 7.4, with NaOH. […] The osmolarity of the extracellular and intracellular solutions was 300 mOsm/kg and 295 mOsm/kg, respectively. All recordings were made at room temperature (22-24° C.) using AXOPATCH 200B amplifiers and PCLAMP software (Axon Instruments, Burlingame, Calif.).
hSCN9A currents in HEK cells were measured using the whole-cell configuration of the patch-clamp technique (Hamill et al., 1981). Uncompensated series resistance was typically 2 to 5 mega ohms and >85% series resistance compensation was routinely achieved. As a result, voltage errors were negligible and no correction was applied. Current records were acquired at 20 to 50 KHz and filtered at 5 to 10 KHz.
HEK cells stably transfected with hSCN9A were viewed under Hoffman contrast optics and placed in front of an array of flow pipes emitting either control or compound-containing extracellular solutions. All compounds were dissolved in dimethyl sulfoxide to make 10 mM stock solutions, which were then diluted into extracellular solution to attain the final concentrations desired. […] The voltage-dependence of inactivation was determined by applying a series of depolarizing prepulses (8 sec long in 10 mV increments) from a negative holding potential. The voltage was then immediately stepped to 0 mV to assess the magnitude of the sodium current. Currents elicited at 0 mV were plotted as a function of prepulse potential to allow estimation of the voltage at which 50% of the channels were inactivated (midpoint of inactivation or V1/2). Compounds were tested for their ability to inhibit hSCN9A sodium channels by activating the channel with a 20 msec voltage step to 0 mV following an 8 second conditioning prepulse to the empirically determined V1/2. Compound effect (% inhibition) was determined by difference in current amplitude before and after application of test compounds. For ease of comparison, “estimated IC-50” (EIC50) values were calculated from single point electrophysiology data by the following equation, (tested concentration, uM)×(100-% inhibition/% inhibition). Inhibition values <20% and >80% were excluded from the calculation.
Electrophysiological assays were conducted with PatchXpress 7000 hardware and associated software (Molecular Devices Corp). All assay buffers and solutions were identical to those used in conventional whole-cell voltage clamp experiments described above. hSCN9A cells were grown as above to 50%-80% confluency and harvested by trypsinization. […]

T1 sequence (Q15858 whole entry): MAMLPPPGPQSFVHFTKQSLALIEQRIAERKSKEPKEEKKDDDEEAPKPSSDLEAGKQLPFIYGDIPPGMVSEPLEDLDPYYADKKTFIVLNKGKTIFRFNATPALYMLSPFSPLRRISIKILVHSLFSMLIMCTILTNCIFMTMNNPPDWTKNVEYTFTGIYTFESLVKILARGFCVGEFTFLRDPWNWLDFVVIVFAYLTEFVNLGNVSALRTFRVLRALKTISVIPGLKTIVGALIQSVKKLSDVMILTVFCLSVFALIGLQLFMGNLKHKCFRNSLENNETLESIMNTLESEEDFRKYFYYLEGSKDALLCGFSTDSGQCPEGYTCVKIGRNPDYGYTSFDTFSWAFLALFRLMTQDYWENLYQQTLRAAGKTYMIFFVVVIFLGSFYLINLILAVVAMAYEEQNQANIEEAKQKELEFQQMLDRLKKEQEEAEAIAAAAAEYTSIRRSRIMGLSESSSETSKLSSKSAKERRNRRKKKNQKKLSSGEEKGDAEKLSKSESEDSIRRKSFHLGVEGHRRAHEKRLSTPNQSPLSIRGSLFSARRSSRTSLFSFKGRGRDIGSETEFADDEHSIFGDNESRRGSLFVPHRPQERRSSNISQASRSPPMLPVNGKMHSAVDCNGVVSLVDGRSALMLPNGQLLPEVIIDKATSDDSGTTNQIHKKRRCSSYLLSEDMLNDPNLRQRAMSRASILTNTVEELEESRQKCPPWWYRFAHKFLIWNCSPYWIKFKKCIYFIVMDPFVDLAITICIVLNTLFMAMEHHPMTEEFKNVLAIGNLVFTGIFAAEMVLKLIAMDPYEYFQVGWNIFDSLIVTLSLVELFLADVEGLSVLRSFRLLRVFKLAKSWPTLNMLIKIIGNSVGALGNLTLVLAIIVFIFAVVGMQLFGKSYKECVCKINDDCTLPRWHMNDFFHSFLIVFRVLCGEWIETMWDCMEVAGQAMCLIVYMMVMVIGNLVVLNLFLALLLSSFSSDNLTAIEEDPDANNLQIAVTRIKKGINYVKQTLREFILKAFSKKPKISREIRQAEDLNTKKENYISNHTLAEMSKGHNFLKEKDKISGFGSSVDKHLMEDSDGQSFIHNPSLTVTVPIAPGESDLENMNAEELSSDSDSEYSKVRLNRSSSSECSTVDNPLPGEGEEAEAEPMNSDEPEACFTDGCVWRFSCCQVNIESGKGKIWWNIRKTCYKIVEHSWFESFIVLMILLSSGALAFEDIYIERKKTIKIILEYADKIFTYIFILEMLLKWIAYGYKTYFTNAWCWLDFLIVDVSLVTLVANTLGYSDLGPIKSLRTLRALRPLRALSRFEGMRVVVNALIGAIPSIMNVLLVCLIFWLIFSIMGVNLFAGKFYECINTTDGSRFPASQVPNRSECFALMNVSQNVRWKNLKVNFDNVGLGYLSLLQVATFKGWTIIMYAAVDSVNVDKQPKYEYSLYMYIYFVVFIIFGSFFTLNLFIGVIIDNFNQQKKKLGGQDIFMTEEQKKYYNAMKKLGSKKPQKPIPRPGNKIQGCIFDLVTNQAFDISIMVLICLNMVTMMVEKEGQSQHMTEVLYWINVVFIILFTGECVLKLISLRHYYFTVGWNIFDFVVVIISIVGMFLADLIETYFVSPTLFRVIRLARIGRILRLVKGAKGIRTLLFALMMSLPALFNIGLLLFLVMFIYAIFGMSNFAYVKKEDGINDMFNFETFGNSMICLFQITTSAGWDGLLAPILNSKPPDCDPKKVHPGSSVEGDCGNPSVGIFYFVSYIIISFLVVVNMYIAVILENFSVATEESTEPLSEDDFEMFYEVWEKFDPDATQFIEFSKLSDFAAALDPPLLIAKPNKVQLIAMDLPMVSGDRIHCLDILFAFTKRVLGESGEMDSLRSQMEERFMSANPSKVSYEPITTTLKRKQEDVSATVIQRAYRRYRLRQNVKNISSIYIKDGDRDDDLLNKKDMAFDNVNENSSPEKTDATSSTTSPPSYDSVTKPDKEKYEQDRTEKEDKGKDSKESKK

SMILES | IC50
N#Cc1cc(C(=O)NS(N)(=O)=O)ccc1Oc1ccccc1-c1ccccc1 [Example 18, N-(aminosulfonyl)-4-(biphenyl-2-yloxy)-3-cyanobenzamide diethylamine salt] | 34000 nM
CNS(=O)(=O)NC(=O)c1cc(F)c(Oc2cnc(OC(C)C)c(Cl)c2)cc1F [Example 31, 4-[(5-chloro-6-isopropoxypyridin-3-yl)oxy]-N-[(methylamino)sulfonyl]-2,5-difluorobenzamide] | 6600 nM
CCNS(=O)(=O)NC(=O)c1ccc(Oc2ccccc2-c2ccccc2)c(C#N)c1 [Example 19, 4-(biphenyl-2-yloxy)-3-cyano-N-[(ethylamino)sulfonyl]benzamide diethylamine salt] | 10000 nM
CN(C)S(=O)(=O)NC(=O)c1ccc(Oc2ccc(Cl)c(C(F)(F)F)c2)cc1 [Example 1, 4-[4-Chloro-3-(trifluoromethyl)phenoxy]-N-[(dimethylamino)sulfonyl]benzamide diethylamine salt] | 2600 nM
COc1cccc(Oc2cc(F)c(C(=O)NS(=O)(=O)N(C)C)cc2F)c1 [Example 14, N-[(dimethylamino)sulfonyl]-2,5-difluoro-4-(3-methoxyphenoxy)benzamide diethylamine salt] | 7500 nM
COc1cccc(Oc2ccc(C(=O)NS(=O)(=O)N(C)C)cc2)c1 [Example 9, N-[(dimethylamino)sulfonyl[-4-(3-methoxyphenoxy)benzamidediethylamine salt] | > 30000 nM
CC(C)COc1ncc(Oc2ccc(C(=O)NS(=O)(=O)N(C)C)cc2)cc1Cl [Example 11, 4-[(5-chloro-6-isobutoxypyridin-3-yl)oxy]-N-[(dimethylamino)sulfonyl]benzamide diethylamine salt] | 2100 nM
CN(C)S(=O)(=O)NC(=O)c1ccc(Oc2ccc(Cl)cc2-c2ccnnc2)cc1 [Example 16, 4-(4-chloro-2-pyridazin-4-ylphenoxy)-N-[(dimethylamino)sulfonyl]benzamide] | 4900 nM
COc1ccccc1Oc1ccc(C(=O)NS(=O)(=O)N(C)C)cc1 [Example 8, N-[(dimethylamino)sulfonyl]-4-(2-methoxyphenoxy)benzamide diethylamine salt] | > 30000 nM
CN(C)S(=O)(=O)NC(=O)c1cc(F)c(Oc2cnc(OCC(C)(C)F)c(Cl)c2)cc1F [Example 33, 4-[(5-chloro-6-(2-fluoro-2-methylpropoxy)pyridin-3-yl)oxy]-N-[(dimethylamino)sulfonyl]-2,5-difluorobenzamide diethylamine salt] | 500 nM
CC(C)N(C)c1ncc(Oc2cc(F)c(C(=O)NS(=O)(=O)N(C)C)cc2F)cc1Cl [Example 24, 4-({5-chloro-6-[isopropyl(methyl)amino]pyridine-3-yl}oxy)-N-[(dimethylamino)sulfonyl]-2,5-difluorobenzamide formate salt] | 660 nM
C[C@@H]1CCCN1c1ncc(Oc2cc(F)c(C(=O)NS(=O)(=O)N(C)C)cc2F)cc1Cl [Example 29, 4-({5-chloro-6-[(2R)-2-methylpyrrolidin-1-yl]pyridine-3-yl}oxy)-N-[(dimethylamino)sulfonyl]-2,5-dfluorobenzamide formate salt] | 240 nM
[2H]C([2H])([2H])C([2H])(Oc1ncc(Oc2cc(F)c(C(=O)NS(=O)(=O)N(C)C)cc2F)cc1Cl)C([2H])([2H])[2H] [Example 17, 4-[(5-chloro-6-isopropoxypyridin-3-yl)oxy]-N-[(dimethylamino)sulfonyl]-2,5-difluorobenzamide-d7] | 200 nM

The remaining lines, values ahead:

IC50 | SMILES
290 nM | CN(C)S(=O)(=O)NC(=O)c1cc(F)c(Oc2cnc(OCC3CC3)c(Cl)c2)cc1F [Example 32, 4-[(5-chloro-6-(cyclopropylmethoxy)pyridin-3-yl)oxy]-N-[(dimethylamino)sulfonyl]-2,5-difluorobenzamide]
9800 nM | CNc1ncc(Oc2cc(F)c(C(=O)NS(=O)(=O)N(C)C)cc2F)cc1Cl [Example 25, 4-{[5-chloro-6-(methylamino)pyridine-3-yl]oxy}-N-[(dimethylamino)sulfonyl]-2,5-difluorobenzamide formate salt]
2500 nM | CN(C)S(=O)(=O)NC(=O)c1cc(F)c(Oc2cc(C(F)(F)F)c(Cl)cn2)cc1F [Example 35, 4-((5-chloro-4-(trifluoromethyl)pyridin-2-yl)oxy)-N-(N,N-dimethylsulfamoyl)-2,5-difluorobenzamide]
7100 nM | COc1cc(Cl)ccc1Oc1ccc(C(=O)NS(=O)(=O)N(C)C)cc1 [Example 5, 4-(4-chloro-2-methoxyphenoxy)-N-[(dimethylamino)sulfonyl]benzamide]
470 nM | CN(C)S(=O)(=O)NC(=O)c1cc(F)c(Oc2cnc(OC(C(F)(F)F)C(F)(F)F)c(Cl)c2)cc1F [Example 37]
100 nM | O=C(NS(=O)(=O)N1CCC1)c1cc(Cl)c(Oc2ccc(Cl)c(Cl)c2)cc1F [Example 42, N-(azetidin-1-ylsulfonyl)-5-chloro-4-(3,4-dichlorophenoxy)-2-fluorobenzamide]
180 nM | CC(C)Oc1ncc(Oc2cc(F)c(C(=O)NS(=O)(=O)N3CCC3)cc2F)cc1Cl [Example 38, N-(azetidin-1-ylsulfonyl)-4-(5-chloro-6-isopropoxypyridin-3-yl)oxy)-2,5-difluorobenzamide diethylamine salt]
600 nM | CN(C)S(=O)(=O)NC(=O)c1cc(F)c(Oc2cnc(NCC3CC3)c(Cl)c2)cc1F [Example 21, 4-({5-chloro-6-[(cyclopropylmethyl)amino]pyridine-3-yl}oxy)-N-[(dimethylamino)sulfonyl]-2,5-difluorobenzamide formate salt]
> 3000 nM | COc1cc(Cl)ccc1Oc1ccc(C(=O)NS(N)(=O)=O)cc1 [Example 4, N-(aminosulfonyl)-4-(4-chloro-2-methoxyphenoxy)benzamide]
470 nM | CC(C)Oc1ncc(Oc2cc(F)c(C(=O)NS(=O)(=O)N(C)C)cc2F)cc1Cl [Example 30, 4-[(5-chloro-6-isopropoxypyridin-3-yl)oxy]-N-[(dimethylamino)sulfonyl]-2,5-difluorobenzamide]
660 nM | CC(Oc1ncc(Oc2cc(F)c(C(=O)NS(=O)(=O)N(C)C)cc2F)cc1Cl)C(F)(F)F (stereo not shown) [Example 36, 4-((5-chloro-6-((1,1,1-trifluoropropan-2-yl)oxy)pyridin-3-yl)oxy)-N-[(dimethylamino)sulfonyl]-2,5-difluorobenzamide]
> 3000 nM | COc1cc(Cl)ccc1Oc1cc(F)c(C(=O)NS(=O)(=O)N(C)C)cc1F [Example 7, 4-(4-chloro-2-methoxvphenoxy)-N-[(dimethylamino)sulfonyl]-2,5-difluorobenzamide]
